Test results published in patent publication US20050026896A1, “Platinum(II) and platinum(IV) complexes and their use” (Faustus Forschungs Cie. Translational Cancer Research GmbH, priority 2001, published 2005).

Tested on: GMP as DNA constituent
Test: Reactivity with GMP: adduct formation under physiological and patho-physiological conditions
Type: biochemical
Description: The reactivity of the compound cis-dichloro-bis(2-ethanolamine)platinum(II) was examined under physiological and patho-physiological conditions (FIG. 2). […] Chem. 39(4): 836-842 (2000); Choi, Sunhee; Mahalingaiah, Shruthi; Delaney, Sarah; Neale, Nathan R.; Masood, Syed “Substitution and Reduction of Platinum(IV) Complexes by a Nucleotide, Guanosine 5′-Monophosphate” Inorg. Chem. 38(8): 1800-1805 (1999); Chen, Yu; Guo, Zijian; Parkinson, John A.; Sadler, Peter J. “Kinetic control of reactions of a sterically hindered platinum picoline anticancer complex with guanosine 5′-monophosphate and glutathione” J. Chem. Soc., Dalton Trans.), 21: 3577-3586 (1998); Bloemink, Marieke J.; Perez, Janice M. J.; Heetebrij, Robert J.; Reedijk, Jan “The new anticancer drug [(2R)-aminomethylpyrrolidine](1,1-cyclobutanedicarboxylato)platinum(II) and its toxic S enantiomer do interact differently with nucleic acids” J. Biol. Inorg. Chem. 4(5): 554-567 (1999).
Similar to Example 8, the reactivity of the compound bis(2-ethanolatoamine-κ^2N,O)platinum(II) (see Example 8 for the synthesis) was examined. In this respect, the proportion of the nucleotide not modified by the active substance was measured.

SMILES	selectivity of reaction, patho-physiological versus physiological conditions (FIG. 2, comparison of left and right diagram)	reactivity: reaction with the biological target (formation of adducts with GMP) (patho-physiological conditions (FIG. 2, left diagram))	reactivity: reaction with the biological target (formation of adducts with GMP) (physiological conditions (FIG. 2, right diagram))	speed of reaction with the nucleotide (proportion of the nucleotide not modified by the active substance) (patho-physiological conditions (pH 6) compared to tissue free of disease (pH 7.4), FIG. 3)
OCC[NH][Pt]([Cl])([Cl])[NH]CCO [(SP-4-2)-dichloro[bis(2-hydroxyethylamine)]platinum(II)]	Selectivity is therefore present	rapid reaction	clearly runs slower	–
C1C[O][Pt]2([NH]1)[NH]CC[O]2 [(SP-4-2)-[bis(2-aminoethanolato)-κ^2N,O]platinum(II)]	–	–	–	significantly increased speed
